Values of other authors as cited in patent publication US5331009A, “Pharmaceutical compositions for treating adrenoleukodystrophy” (Croda International plc, priority 1988, dated 1994).

System: ALD patients

## CCCCCCCC/C=C\CCCCCCCC(=O)OCC(COC(=O)CCCCCCC/C=C\CCCCCCCC)OC(=O)CCCCCCC/C=C\CCCCCCCC [glyceryl trioleate]
Very long chain fatty acids omitted from diet, glyceryl trioleate used alone
  C26:0 body levels: reductions can occur

## CCCCCCCC/C=C\CCCCCCCC(=O)O [oleic acid (C18:1), oleic acid]
Rizzo, Neurology 36 (1986) 357, Moser, Ann. Neurol. 21, 1987
  therapeutic benefit of administration to ALD patients: generally therapeutically advantageous
